The values that follow are results of earlier work, collected in US8580300B2, “Pharmaceutical formulation for treating the upper digestive tract” (Dr. Falk Pharma GmbH, priority 2008, dated 2013).

For the data set the following is noted: budesonide resorbed in the stomach/digestive tract.

The structures appear in SMILES notation.

On to `CCCC1O[C@@H]2C[C@H]3[C@@H]4CCC5=CC(=O)C=C[C@]5(C)[C@H]4[C@@H](O)C[C@]3(C)[C@]2(C(=O)CO)O1` (stereo partly drawn) [budesonide, 16,17-(butylidenebis(oxy))-11,21-dihydroxy-(11-β,16-α)-pregna-1,4-diene-3,20-dione], for which the “share of the absorbed budesonide metabolised by the first-pass effect” value is on record as 90%.
